Data taken from US20260138958A1, “SUBSTITUTED N-PHENYLURACILS AND SALTS THEREOF, AND USE THEREOF AS HERBICIDAL ACTIVE SUBSTANCES” (Bayer Aktiengesellschaft, priority 2022, published 2026).

Assays:
Format in all cases: in vivo
[1] = system: Polygonum convolvulus (POLCO); experiment: Post-emergence herbicidal action, greenhouse pot test; settings: 20 g/ha
Description: (§1) Seeds of monocotyledonous and dicotyledonous weeds and crop plants were placed in sandy loam in plastic or wood-fibre pots, covered with soil and cultivated in a greenhouse under controlled growth conditions. 2 to 3 weeks after sowing, the test plants were treated at the one-leaf stage. The compounds of the invention, formulated in the form of wettable powders (WP) or as emulsion concentrates (EC), were then sprayed onto the green parts of the plants as aqueous suspension or emulsion with addition of 0.5% additive at a water application rate of 600 l/ha (converted). After the test plants had been kept in the greenhouse under optimum growth conditions for about 3 weeks, the activity of the preparations was rated visually in comparison to untreated controls. For example, 100% activity=the plants have died, 0% activity=like control plants.

Viola tricolor (VIOTR) = experiment: as above
Description: as §1

[2] = system: Amaranthus retroflexus (AMARE); experiment: as above
Description: as §1

[3] = system: Alopecurus myosuroides (ALOMY); experiment: as above
Description: as §1

Bassia scoparia (KCHSC) = experiment: as above
Description: as §1

[4] = system: Pharbitis purpurea (PHBPU); experiment: as above
Description: as §1

[5] = system: Echinochloa crus-galli (ECHCG); experiment: as above
Description: as §1

Setaria viridis (SETVI) = experiment: as above
Description: as §1

Veronica persica (VERPE) = experiment: as above
Description: as §1

[6] = system: Digitaria sanguinalis (DIGSA); experiment: as above
Description: as §1

[7] = system: Abutilon theophrasti (ABUTH); experiment: as above
Description: as §1

[8] = system: Triticum aestivum (TRZAS); experiment: Post-emergence crop plant compatibility, greenhouse pot test; settings: crop plant, post-emergence, 1.25 g/ha
Description: as §1
The observed effects on selected crop plants are reported here in comparison to the untreated controls (values in %).

[9] = system: Tripleurospermum inodorum (MATIN); experiment: Post-emergence herbicidal action, greenhouse pot test
Description: as §1

| Structure (SMILES) | Post-emergence effect at 20 g/ha against POLCO in % [1] [%] | Post-emergence effect at 5 g/ha against VIOTR in % (Viola tricolor (VIOTR)) [%] | Post-emergence effect at 20 g/ha against VIOTR in % (Viola tricolor (VIOTR)) [%] | Post-emergence effect at 1.25 g/ha against AMARE in % [2] [%] | Post-emergence effect at 5 g/ha against AMARE in % [2] [%] | Post-emergence effect at 20 g/ha against AMARE in % [2] [%] | Post-emergence effect at 20 g/ha against ALOMY in % [3] [%] | Post-emergence effect at 5 g/ha against KCHSC in % (Bassia scoparia (KCHSC)) [%] | Post-emergence effect at 20 g/ha against KCHSC in % (Bassia scoparia (KCHSC)) [%] | Post-emergence effect at 5 g/ha against PHBPU in % [4] [%] | Post-emergence effect at 20 g/ha against PHBPU in % [4] [%] | Post-emergence effect at 5 g/ha against ECHCG in % [5] [%] | Post-emergence effect at 20 g/ha against ECHCG in % [5] [%] | Post-emergence effect at 5 g/ha against SETVI in % (Setaria viridis (SETVI)) [%] | Post-emergence effect at 20 g/ha against SETVI in % (Setaria viridis (SETVI)) [%] | Post-emergence effect at 1.25 g/ha against VERPE in % (Veronica persica (VERPE)) [%] | Post-emergence effect at 5 g/ha against VERPE in % (Veronica persica (VERPE)) [%] | Post-emergence effect at 20 g/ha against VERPE in % (Veronica persica (VERPE)) [%] | Post-emergence effect at 20 g/ha against DIGSA in % [6] [%] | Post-emergence effect at 20 g/ha against ABUTH in % [7] [%] | further results |
| --- | --- | --- | --- | --- | --- | --- | --- | --- | --- | --- | --- | --- | --- | --- | --- | --- | --- | --- | --- | --- | --- |
| CC(OC(=O)COc1ccccc1Oc1cc(-n2c(=O)cc(C(F)(F)F)n(C)c2=O)c(F)cc1Cl)C1CCCCC1 (stereo not drawn) [I.7-15] | 100 | 100 | 100 | 100 | 100 | 100 | 80 | 100 | 100 | 100 | 100 | 90 | 100 | 100 | 100 | 80 | 100 | 100 | 100 | 100 | Post-emergence effect at 1.25 g/ha against TRZAS in % [8]: 20% |
| Cn1c(C(F)(F)F)cc(=O)n(-c2cc(Oc3cc(F)ccc3OCC(=O)OCC3CC3)c(Br)cc2F)c1=O [I.24-1] | 100 | 100 | 100 | 100 | 100 | 100 |  | 100 | 100 | 100 | 100 | 80 | 100 | 100 | 100 |  | 100 | 100 | 100 | 100 | Post-emergence effect at 20 g/ha against MATIN in % [9]: 80%; Post-emergence effect at 1.25 g/ha against KCHSC in % (Bassia scoparia (KCHSC)): 100%; Post-emergence effect at 1.25 g/ha against PHBPU in % [4]: 80%; Post-emergence effect at 1.25 g/ha against SETVI in % (Setaria viridis (SETVI)): 90%; Post-emergence effect at 1.25 g/ha against DIGSA in % ([6]; 1.25 g/ha): 80%; Post-emergence effect at 5 g/ha against DIGSA in % [6]: 100%; Post-emergence effect at 1.25 g/ha against ABUTH in % [7]: 100%; Post-emergence effect at 5 g/ha against ABUTH in % [7]: 100%; Post-emergence effect at 1.25 g/ha against TRZAS in % [8]: 20% |
| Cn1c(C(F)(F)F)cc(=O)n(-c2cc(Oc3ccccc3OCC(=O)OCC3(C)CC3)c(Cl)cc2F)c1=O [I.7-5] | 100 | 100 | 100 | 100 | 100 | 100 | 100 | 100 | 100 | 100 | 100 | 100 | 100 | 100 | 100 | 100 | 100 | 100 | 100 | 100 | Post-emergence effect at 1.25 g/ha against VIOTR in % (Viola tricolor (VIOTR); 1.25 g/ha): 100%; Post-emergence effect at 5 g/ha against ALOMY in % ([3]; 5 g/ha): 80%; Post-emergence effect at 5 g/ha against MATIN in % ([9]; 5 g/ha): 100%; Post-emergence effect at 20 g/ha against MATIN in % [9]: 100%; Post-emergence effect at 1.25 g/ha against KCHSC in % (Bassia scoparia (KCHSC)): 100%; Post-emergence effect at 1.25 g/ha against PHBPU in % [4]: 100%; Post-emergence effect at 1.25 g/ha against SETVI in % (Setaria viridis (SETVI)): 100%; Post-emergence effect at 5 g/ha against DIGSA in % [6]: 100%; Post-emergence effect at 1.25 g/ha against ABUTH in % [7]: 100%; Post-emergence effect at 5 g/ha against ABUTH in % [7]: 100% |
